Among the data in ChEMBL document CHEMBL4507319 (2021) are residual activity and inhibition values, retold here.

Assay [1] addresses Phosphatidylinositol 4,5-bisphosphate 3-kinase catalytic subunit gamma isoform (Homo sapiens) (UniProt P48736). Particulars: Compound concentration 1000.0 nM.
Assay [2] deals with Serine/threonine-protein kinase pim-2 (Homo sapiens) (UniProt Q9P1W9). Particulars: Compound concentration 1000.0 nM.
The target of assay [3] is Proto-oncogene tyrosine-protein kinase receptor Ret (Homo sapiens) (UniProt P07949). Particulars: Compound concentration 1000.0 nM.
The target in assay [4] is Muscarinic acetylcholine receptor M4 (Homo sapiens) (UniProt P08173). Particulars: Compound concentration 10.0 uM.
Chain of Muscarinic acetylcholine receptor M4 (Homo sapiens) (P08173 whole entry): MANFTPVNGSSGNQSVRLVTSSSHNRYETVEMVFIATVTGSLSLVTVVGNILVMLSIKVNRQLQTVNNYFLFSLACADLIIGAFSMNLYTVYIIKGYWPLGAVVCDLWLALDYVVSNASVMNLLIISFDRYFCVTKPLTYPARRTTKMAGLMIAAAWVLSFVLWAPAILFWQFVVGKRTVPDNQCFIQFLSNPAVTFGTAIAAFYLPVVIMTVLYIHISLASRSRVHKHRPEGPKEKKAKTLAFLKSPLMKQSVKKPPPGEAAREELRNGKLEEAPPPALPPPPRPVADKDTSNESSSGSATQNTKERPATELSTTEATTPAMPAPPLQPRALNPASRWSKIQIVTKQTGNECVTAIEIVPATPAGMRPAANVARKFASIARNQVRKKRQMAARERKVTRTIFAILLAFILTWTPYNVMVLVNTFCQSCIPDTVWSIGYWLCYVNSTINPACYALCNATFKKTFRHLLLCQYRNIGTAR
The target in assay [5] is T1, Aurora kinase A (Homo sapiens) (UniProt O14965).
T1 sequence (whole entry): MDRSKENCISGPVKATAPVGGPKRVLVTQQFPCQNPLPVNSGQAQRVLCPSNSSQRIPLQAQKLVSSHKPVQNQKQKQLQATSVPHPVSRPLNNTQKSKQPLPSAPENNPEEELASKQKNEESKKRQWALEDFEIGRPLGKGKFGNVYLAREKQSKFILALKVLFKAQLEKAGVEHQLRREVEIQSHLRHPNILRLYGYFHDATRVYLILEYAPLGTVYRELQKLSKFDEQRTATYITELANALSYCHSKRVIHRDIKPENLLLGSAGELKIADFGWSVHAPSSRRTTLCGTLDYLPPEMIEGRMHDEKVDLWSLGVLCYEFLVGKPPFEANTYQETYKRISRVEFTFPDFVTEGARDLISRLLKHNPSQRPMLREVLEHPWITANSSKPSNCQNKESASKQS
Particulars: Compound concentration 1000.0 nM.

Assay [6] addresses Cyclin-dependent kinase 18 (Homo sapiens) (UniProt Q07002). Particulars: Compound concentration 1000.0 nM.
Assay [7] addresses Protein kinase C iota type (Homo sapiens) (UniProt P41743). Particulars: Compound concentration 1000.0 nM.
For assay [8], the target named is Ribosomal protein S6 kinase alpha-6 (Homo sapiens) (UniProt Q9UK32). As to conditions: Compound concentration 1000.0 nM.
Chain of Ribosomal protein S6 kinase alpha-6 (Homo sapiens) (Q9UK32 whole entry): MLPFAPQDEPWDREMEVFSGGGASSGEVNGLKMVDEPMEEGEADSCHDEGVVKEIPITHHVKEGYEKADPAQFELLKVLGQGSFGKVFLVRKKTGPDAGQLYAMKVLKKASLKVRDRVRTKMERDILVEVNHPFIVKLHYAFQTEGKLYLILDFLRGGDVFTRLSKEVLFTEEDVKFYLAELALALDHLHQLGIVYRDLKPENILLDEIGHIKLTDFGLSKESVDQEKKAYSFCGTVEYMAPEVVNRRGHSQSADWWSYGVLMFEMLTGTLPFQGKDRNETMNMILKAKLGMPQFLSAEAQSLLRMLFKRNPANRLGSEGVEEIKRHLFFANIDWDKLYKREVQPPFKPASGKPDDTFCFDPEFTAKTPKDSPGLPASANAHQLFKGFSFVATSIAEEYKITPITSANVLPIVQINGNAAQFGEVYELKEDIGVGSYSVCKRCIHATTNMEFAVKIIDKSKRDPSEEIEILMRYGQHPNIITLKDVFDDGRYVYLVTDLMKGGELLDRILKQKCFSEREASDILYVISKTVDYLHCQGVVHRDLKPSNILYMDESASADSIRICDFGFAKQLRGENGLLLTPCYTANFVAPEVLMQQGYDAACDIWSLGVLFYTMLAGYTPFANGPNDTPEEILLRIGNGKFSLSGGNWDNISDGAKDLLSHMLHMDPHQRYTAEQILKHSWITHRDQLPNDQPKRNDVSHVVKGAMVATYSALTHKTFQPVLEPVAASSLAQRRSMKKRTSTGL
For assay [9], the target named is Microtubule-associated serine/threonine-protein kinase 1 (Homo sapiens) (UniProt Q9Y2H9). As to conditions: Compound concentration 1000.0 nM.
Chain of Microtubule-associated serine/threonine-protein kinase 1 (Homo sapiens) (Q9Y2H9 whole entry, looked up): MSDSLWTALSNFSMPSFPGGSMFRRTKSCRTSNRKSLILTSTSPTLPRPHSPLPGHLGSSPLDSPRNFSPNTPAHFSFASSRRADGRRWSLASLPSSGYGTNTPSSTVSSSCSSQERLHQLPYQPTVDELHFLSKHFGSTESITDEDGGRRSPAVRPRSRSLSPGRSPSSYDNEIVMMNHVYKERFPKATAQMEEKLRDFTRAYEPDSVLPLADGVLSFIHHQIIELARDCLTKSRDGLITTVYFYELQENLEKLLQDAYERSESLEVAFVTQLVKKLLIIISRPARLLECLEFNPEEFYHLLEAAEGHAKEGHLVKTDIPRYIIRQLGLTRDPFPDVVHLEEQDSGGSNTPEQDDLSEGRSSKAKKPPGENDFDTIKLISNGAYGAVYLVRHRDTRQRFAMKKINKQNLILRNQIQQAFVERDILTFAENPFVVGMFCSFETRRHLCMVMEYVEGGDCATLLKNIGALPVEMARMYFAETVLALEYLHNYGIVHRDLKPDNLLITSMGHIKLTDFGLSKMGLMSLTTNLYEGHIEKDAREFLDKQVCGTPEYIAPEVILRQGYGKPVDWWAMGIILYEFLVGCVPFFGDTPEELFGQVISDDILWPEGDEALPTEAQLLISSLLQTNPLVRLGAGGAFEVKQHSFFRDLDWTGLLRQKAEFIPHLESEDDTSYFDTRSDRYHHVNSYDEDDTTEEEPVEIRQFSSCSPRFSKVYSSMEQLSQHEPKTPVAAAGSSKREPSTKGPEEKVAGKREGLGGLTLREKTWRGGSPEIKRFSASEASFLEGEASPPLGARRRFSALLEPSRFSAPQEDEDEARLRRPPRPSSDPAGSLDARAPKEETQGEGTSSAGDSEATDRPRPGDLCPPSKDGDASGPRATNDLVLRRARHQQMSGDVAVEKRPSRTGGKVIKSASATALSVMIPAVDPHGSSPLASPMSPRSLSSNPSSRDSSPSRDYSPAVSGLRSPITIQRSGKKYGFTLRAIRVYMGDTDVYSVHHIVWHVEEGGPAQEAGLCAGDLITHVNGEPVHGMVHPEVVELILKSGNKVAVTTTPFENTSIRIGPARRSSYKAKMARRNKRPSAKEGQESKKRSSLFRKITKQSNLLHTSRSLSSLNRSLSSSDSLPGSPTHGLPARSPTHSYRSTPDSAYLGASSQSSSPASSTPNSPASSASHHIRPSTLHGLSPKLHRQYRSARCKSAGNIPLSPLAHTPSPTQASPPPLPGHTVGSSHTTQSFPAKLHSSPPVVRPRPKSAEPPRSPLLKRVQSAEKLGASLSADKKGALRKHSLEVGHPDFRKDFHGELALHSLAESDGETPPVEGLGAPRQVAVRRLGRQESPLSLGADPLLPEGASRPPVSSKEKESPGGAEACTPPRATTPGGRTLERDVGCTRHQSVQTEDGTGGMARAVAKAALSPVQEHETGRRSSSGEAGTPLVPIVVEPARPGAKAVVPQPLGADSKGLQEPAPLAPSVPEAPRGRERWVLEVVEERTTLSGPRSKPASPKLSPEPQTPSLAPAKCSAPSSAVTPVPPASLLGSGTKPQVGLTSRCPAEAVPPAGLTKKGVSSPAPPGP
Assay [10] concerns the target Muscarinic acetylcholine receptor M2 (Homo sapiens) (UniProt P08172). Particulars: Compound concentration 10.0 uM.
Assay [11] concerns Proto-oncogene tyrosine-protein kinase receptor Ret (Homo sapiens), P07949 [V804L]. Particulars: Compound concentration 1000.0 nM.
The target in assay [12] is Serine/threonine-protein kinase 33 (Homo sapiens) (UniProt Q9BYT3). As to conditions: Compound concentration 1000.0 nM.
Assay [13] deals with Fibroblast growth factor receptor 1 (Homo sapiens) (UniProt P11362). As to conditions: Compound concentration 1000.0 nM.
Assay [14] addresses T2, Serine/threonine-protein kinase Nek9 (Homo sapiens) (UniProt Q8TD19).
T2 sequence (whole entry): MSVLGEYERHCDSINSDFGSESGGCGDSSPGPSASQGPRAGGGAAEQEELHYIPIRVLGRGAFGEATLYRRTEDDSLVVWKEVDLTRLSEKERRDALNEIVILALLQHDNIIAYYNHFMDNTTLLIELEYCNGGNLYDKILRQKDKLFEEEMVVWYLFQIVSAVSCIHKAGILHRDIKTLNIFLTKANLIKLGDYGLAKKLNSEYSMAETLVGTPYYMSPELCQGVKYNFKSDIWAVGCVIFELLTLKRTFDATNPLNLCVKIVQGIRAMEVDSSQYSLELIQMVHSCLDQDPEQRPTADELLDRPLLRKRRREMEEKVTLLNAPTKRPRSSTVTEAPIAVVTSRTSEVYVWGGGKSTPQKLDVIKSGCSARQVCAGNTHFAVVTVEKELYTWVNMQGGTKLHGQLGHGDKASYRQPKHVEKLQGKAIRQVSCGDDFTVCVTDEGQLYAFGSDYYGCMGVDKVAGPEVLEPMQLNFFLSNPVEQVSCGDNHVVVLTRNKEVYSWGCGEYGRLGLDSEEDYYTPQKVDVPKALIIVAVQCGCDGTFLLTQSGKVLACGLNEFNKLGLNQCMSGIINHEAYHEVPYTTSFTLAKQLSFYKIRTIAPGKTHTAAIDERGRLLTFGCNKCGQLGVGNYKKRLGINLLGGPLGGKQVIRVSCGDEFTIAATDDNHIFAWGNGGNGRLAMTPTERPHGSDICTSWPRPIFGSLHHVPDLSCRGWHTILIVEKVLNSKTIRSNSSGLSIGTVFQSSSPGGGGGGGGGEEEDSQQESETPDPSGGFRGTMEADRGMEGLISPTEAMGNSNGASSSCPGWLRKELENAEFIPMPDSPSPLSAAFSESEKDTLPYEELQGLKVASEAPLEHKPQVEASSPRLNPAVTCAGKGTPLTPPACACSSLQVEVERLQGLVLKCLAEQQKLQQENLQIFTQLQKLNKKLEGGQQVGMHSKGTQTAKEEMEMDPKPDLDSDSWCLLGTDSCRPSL
As to conditions: Compound concentration 1000.0 nM.

Assay [15] deals with Tyrosine-protein kinase Srms (Homo sapiens) (UniProt Q9H3Y6). As to conditions: Compound concentration 1000.0 nM.
In assay [16] the target is T3, G protein-coupled receptor kinase 3 (Homo sapiens) (UniProt P35626).
T3 sequence (whole entry): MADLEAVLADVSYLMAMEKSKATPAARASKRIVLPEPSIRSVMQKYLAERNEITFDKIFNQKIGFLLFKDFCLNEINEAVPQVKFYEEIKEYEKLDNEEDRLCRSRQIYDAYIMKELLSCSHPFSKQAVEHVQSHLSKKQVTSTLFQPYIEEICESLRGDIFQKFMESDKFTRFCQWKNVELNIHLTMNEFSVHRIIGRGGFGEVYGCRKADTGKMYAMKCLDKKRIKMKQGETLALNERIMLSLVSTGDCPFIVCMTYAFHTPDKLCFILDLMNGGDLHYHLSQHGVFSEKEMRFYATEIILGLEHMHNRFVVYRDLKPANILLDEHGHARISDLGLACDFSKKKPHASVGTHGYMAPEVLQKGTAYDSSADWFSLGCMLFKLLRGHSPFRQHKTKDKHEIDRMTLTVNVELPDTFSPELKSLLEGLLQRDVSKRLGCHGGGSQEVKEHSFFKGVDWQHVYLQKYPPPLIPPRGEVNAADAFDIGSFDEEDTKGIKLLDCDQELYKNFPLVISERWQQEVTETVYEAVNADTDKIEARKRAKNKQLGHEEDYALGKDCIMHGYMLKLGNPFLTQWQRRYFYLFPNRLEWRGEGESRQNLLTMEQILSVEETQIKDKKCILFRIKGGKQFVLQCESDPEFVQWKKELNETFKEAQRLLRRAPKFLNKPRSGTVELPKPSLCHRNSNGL
Particulars: Compound concentration 1000.0 nM.

For assay [17], the target named is Serine/threonine-protein kinase/endoribonuclease IRE1 (Homo sapiens) (UniProt O75460). Particulars: Compound concentration 1000.0 nM.

Chain of Serine/threonine-protein kinase pim-2 (Homo sapiens) (Q9P1W9 whole entry, looked up): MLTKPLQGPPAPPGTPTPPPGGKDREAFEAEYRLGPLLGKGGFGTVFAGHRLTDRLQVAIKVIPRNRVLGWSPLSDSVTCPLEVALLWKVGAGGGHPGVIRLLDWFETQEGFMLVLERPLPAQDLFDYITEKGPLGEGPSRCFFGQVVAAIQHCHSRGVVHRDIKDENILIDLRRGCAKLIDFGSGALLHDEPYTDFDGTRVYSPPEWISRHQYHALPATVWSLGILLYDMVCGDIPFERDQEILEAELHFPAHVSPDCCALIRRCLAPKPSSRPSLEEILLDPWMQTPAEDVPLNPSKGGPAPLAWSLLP
Chain of Protein kinase C iota type (Homo sapiens) (P41743 whole entry): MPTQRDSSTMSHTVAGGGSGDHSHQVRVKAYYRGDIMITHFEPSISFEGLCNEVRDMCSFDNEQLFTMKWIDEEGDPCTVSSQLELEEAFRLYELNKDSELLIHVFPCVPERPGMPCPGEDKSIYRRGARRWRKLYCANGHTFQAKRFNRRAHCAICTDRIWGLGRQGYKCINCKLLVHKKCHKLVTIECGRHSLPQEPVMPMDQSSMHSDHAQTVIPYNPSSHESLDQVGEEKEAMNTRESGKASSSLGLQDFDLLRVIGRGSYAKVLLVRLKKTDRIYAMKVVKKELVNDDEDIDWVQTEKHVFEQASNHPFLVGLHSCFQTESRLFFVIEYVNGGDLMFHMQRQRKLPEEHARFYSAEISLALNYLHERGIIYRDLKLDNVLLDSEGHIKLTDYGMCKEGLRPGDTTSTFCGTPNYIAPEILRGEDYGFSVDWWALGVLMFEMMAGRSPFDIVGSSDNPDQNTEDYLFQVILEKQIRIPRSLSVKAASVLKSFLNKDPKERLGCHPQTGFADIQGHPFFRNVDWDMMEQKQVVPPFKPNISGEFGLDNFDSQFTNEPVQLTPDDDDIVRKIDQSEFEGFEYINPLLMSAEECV
Chain of Phosphatidylinositol 4,5-bisphosphate 3-kinase catalytic subunit gamma isoform (Homo sapiens) (P48736 whole entry, looked up, canonical isoform): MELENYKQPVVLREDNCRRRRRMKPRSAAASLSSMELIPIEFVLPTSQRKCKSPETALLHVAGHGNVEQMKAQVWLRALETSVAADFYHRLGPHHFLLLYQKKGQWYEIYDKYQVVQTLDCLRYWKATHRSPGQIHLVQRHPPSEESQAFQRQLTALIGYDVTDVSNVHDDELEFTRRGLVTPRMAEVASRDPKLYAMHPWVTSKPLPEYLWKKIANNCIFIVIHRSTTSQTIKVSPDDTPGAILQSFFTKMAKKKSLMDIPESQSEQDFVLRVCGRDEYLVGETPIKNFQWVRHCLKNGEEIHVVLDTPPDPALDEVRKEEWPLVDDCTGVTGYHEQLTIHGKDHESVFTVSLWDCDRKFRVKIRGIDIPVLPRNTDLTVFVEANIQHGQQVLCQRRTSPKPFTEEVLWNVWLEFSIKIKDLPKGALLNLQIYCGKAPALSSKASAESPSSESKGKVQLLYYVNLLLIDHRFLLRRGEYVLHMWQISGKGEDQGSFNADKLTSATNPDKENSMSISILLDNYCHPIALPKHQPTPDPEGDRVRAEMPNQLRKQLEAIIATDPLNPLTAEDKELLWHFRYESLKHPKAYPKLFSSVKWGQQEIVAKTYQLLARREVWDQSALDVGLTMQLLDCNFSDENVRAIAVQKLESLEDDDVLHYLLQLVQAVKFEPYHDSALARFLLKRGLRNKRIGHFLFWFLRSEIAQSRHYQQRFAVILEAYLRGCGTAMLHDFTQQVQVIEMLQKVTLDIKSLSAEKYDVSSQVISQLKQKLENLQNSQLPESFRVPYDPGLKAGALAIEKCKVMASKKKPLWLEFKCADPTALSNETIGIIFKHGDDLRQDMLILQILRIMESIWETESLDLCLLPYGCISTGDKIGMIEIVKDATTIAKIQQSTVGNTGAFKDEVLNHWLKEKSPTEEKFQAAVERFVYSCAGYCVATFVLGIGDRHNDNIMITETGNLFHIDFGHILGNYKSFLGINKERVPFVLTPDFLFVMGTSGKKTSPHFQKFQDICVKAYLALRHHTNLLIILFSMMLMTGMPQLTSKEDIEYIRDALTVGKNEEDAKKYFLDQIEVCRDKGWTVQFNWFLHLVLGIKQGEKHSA

Turning to `CC1=C(C#N)C(c2ccc3c(c2)c(NC(=O)c2ccccc2C)nn3C)C(C#N)=C(C)N1` [BAY-974], the residual activity (as a rule, the activity still measured, relative to the control) is 84% in [1]; 91% in assay [2]; 97% in [3]; 61% in assay [5]; 100% in [6]; 66% in [7]. Besides, the residual activity in assay [8] was 83%; in assay [9], 92%; in [11] it was 100%; in [12], 100%; in assay [13], 97%; in [14] it was 100%. The residual activity in assay [15] was 57%; in assay [16], 93%; in [17] it was 84%. In addition, the inhibition (in general, the relative decrease from the control value, in per cent) is 6.87% in assay [4] and -2.08% in assay [10].
Regarding `CCc1ccccc1C(=O)Nc1n[nH]c2c(C)c(F)c(C3C(C#N)=C(C)N(C)C(C)=C3C#N)cc12` [BAY-3827], the residual activity in [1] is 100%; in assay [2], 99%; in [3], 65%; in [5], 51%; in [6] it was 75%; in assay [7] it was 82%. For the same compound, the residual activity in [8] was 100%; in assay [9], 100%; in assay [11] it was 25%; in [12], 100%; in assay [13] it was 97%; in assay [14] it was 93%. Moreover, the residual activity in assay [15] was 94%; in assay [16], 100%; in assay [17] it was 70%. For the same compound, the inhibition in [4] was 8.27%; in assay [10], 5.1%.
